Reference: patent EP0616805A1, “Use of acyl L-carnitine gamma-hydroxybutyrate for the treatment of alcoholism” (Sigma-Tau Industrie Farmaceutiche Riunite S.p.A., priority 1993, dated 1994)

Experiments:
Type in all cases: in vivo, Wistar male rats
alcohol-dependent rats = assay: modified Vogel test (licks at shock-linked drinking vessel) in alcohol-dependent rats; details: 100 mg/kg intraperitoneal at ethanol suspension; rats given 10% ethanol for 6 months; 10 min. exposure period; saline group 38.5 ± 8.5
Description: Wistar male rats (housed in groups of 5 per cage) were used, kept in conditions of constant light-dark alternation at 21°C and fed with standard laboratory feed. The animals were chronically administered 10% ethanol ad lib. for 6 months.
To assess the activity, if any, of VCGB on the anxiety component involved in the compulsive act of searching for alcohol, a modified version of the Vogel test was used as described by Keppler D. et al. in Exp. Mol. Path. 9, 279 (1968).
Prior to the start of the experiment the animals were deprived of water for 48 h. At the time of ethanol treatment suspension, the animals were divided into 4 groups who were given the following intraperitoneal administrations: the first group (A) received saline solution (15 ml/kg), the second group (B) VCGB (100 mg/kg), the third group (C) GHB (100 mg/kg) and the fourth group (D) IVC ([…]).
On the day of the test, the animals were provided with two drinking vessels, one containing water and the other a mixture of water and ethanol (90:10 v/v) in bottles, the metal spouts of which were connected up to a source of electricity: after every 5 licks at the drinking vessel an electric shock (1 mA) was delivered for 10 min. which obliged the animal to withdraw, overcoming its desire to drink the water-alcohol solution. Refusal of the animals to drink the water-alcohol solution, confining their attention only to the vessel containing water alone, was taken as an indication of efficacy. In evaluating the results, the numbers of licks were compared for treated animals versus controls over the 10 min. exposure period.

[1] = system: rats chronically administered 10% ethanol; assay: alcohol withdrawal syndrome: tremors by the Hunt-Majchrowicz method; details: 100 mg/kg intraperitoneal, eight hours after suspension of ethanol; for number of tremors, 30 min: saline group 6 ± 2.5; for number of tremors, 60 min: saline group 8 ± 1.5; for number of tremors, 90 min: saline group 7 ± 1.5; for number of tremors, 120 min: saline group 8 ± 2.5
Description: The experiment was performed in Wistar male rats housed in groups of 5 per cage under conditions of constant light-dark alternation at 21°C and fed with standard laboratory feed. The animals were chronically administered 10% ethanol ad lib. for 6 months.
Eight hours after suspension of ethanol administration, the animals were divided into 4 groups of 5 rats each.
The first group (A) was administered saline solution intraperitoneally (15 ml/kg), the second group (B) was given VCGB (100 mg/kg), again intraperitoneally, the third group (C) received GHB (100 mg/kg), while the fourth group (D) was given IVC (100 mg/kg). For the purposes of assessing the effects induced by the above-mentioned treatments on occurrence of alcohol withdrawal syndrome, tremors were measured in the rat, where, as in man, they are the most characteristic sign of withdrawal syndrome. Evaluation of the number of tremors was done using the method described by Hunt and Majchrowicz (see Hunt W.A. and Majchrovicz E., Journal of Pharmacology and Experimental Therapeutics, 213, 9-12 (1980). The results are given here below in Table 2. TABLE 2.

[2] = system: rats chronically treated with alcohol; assay: alcohol withdrawal syndrome: convulsions on sound stimulation (electric bell, 100 dB, 1 min); details: 100 mg/kg intraperitoneal, eight hours after suspension of ethanol; test one hour after treatment; saline group 9/10
Description: The experiment was performed in Wistar male rats housed in groups of 5 per cage under constant light-dark alternation at 21°C and fed with standard laboratory feed. The animals were chronically administered 10% ethanol ad lib. for 6 months.
Eight hours after suspension of ethanol administration the animals were divided into 4 groups of 10 rats each. The first group (A) were administered saline solution (15 ml/kg) intraperitoneally, the second group (B) VCGB (100 mg/kg), again intraperitoneally, the third group (C) GHB (100 mg/kg) and the last group (D) IVC (100 mg/kg). For the purposes of evaluating the effects of the treatment on occurrence of alcohol withdrawal syndrome, the rats' susceptibility to onset of behavioral reactions (convulsions) due to emission of sound for 1 min by an electric bell (100 dB) was observed. The experiment was performed in all groups of rats one hour after treatment, and the results are given here below in Table 3.

[3] = system: lipoperoxidation in the CNS of rats; assay: lipoperoxidation in the CNS: cerebral malonaldehyde (MDA) after chronic ethanol treatment; details: brain homogenate; 10% ethanol for two months, then 100 mg/kg single intraperitoneal dose; Control 0.543 ± 0.19, Ethanol 1.12 ± 0.13
Description: This study was conducted in order to assess what variations in malonaldehyde (MDA) occur following VCGB administration, MDA being a reliable and quantifiable index of the vulnerability of the central nervous system to damage due to free radicals as a result of the detrimental effects of ethanol.
The experiment was conducted in Wistar male rats housed in groups of 5 per cage under constant light-dark alternation at 21°C and fed with standard laboratory feed. Two groups of rats, each comprising 5 animals, were administered 10% ethanol in water throughout the treatment period. A third group of animals was kept on a standard laboratory diet without receiving any treatment. After two months of ethanol treatment the animals in the first group were administered VCGB in aqueous solution (100 mg/kg) in a single intraperitoneal dose. A few days after treatment, the animals were sacrificed and the brains promptly removed. MDA was measured using a modified micromethod described by Slater and Sawyer (Slater T. F. and Sawyer B. C., 1971, J. Biochem. Tokyo 8: 2180). […] The samples were placed in boiling water for 10 min, and after cooling absorbance was determined at 532 nm using a spectrophotometer. […] Proteins were measured by the Smith method (Smith et al., 1985, Analyt. Biochem. 27: 502), using bicinchoninic acid as reagent. […]

Row | SMILES | Number of licks (alcohol-dependent rats) | number of tremors, 30 min [1] | number of tremors, 60 min [1] | number of tremors, 90 min [1] | number of tremors, 120 min [1] | Animals with convulsions/animals treated [2] | MDA [3] [nmol/mg protein]
1 | O=C(O)CCCO [GHB, gamma-hydroxybutyric acid] | 11 ± 2.4 ▲ | 2 ± 0.5 | 1 ± 0.5 | 2 ± 1 | 3 ± 1 | 4/10 | 
2 | CC(C)CC(=O)O[C@H](CC(=O)[O-])C[N+](C)(C)C [IVC, isovaleryl L-carnitine] | 35.2 ± 7.4 | 4 ± 2 | 5 ± 2 | 5 ± 1.5 | 6 ±2 | 6/10 | 
3 | CC(C)CC(=O)O[C@H](CC(=O)OCCCC(=O)[O-])C[N+](C)(C)C [VCGB, isovaleryl L-carnitine gamma-hydroxybutyrate] | 5.6 ± 1.14 | 0 ± 0.25 | 0 ± 0 | 0 ± 0.75 | 0 ± 0.25 | 1/10 | 0.497 ± 0.15
